Two molecules from patent publication US12291548B2, “Compounds, compositions, and methods for the treatment of disease” (priority 2018, dated 2025) can be followed below.

In experiment [1] the target is T1, HAQ isoform human STING (hSTING) (Homo sapiens, UniProt Q86WV6, G230A/H232R/R293Q/R71H).
T1 construct: THP1 cells naturally expressing HAQ isoform human STING (hSTING); endogenous in cells; host or cells: THP1 cells stably transfected with ISRE-inducible Lucia and NF-κB inducible SEAP reporters
Description: THP1 dual reporter assay (ISRE-inducible Lucia, NF-κB inducible SEAP). It counts as cell-based. The following applies: THP1 cells naturally expressing HAQ hSTING, 20 h incubation, vs DMSO-treated sample; for ISRE (IRF) reporter activity, induction: QUANTI-luc. How it is done: THP1 cells naturally expressing HAQ isoform human STING (hSTING), stably transfected with an ISRE-inducible Lucia and NF-κB inducible SEAP were treated with various concentrations of Cmd 1 or DMSO control. After 20 h incubation, levels of Lucia and SEAP were measured using QUANTI-luc and QUANTI-Blue to measure and ISRE and NF-κB reporter activity respectively. Percent induction was calculated from fold change in activity compared to DMSO-treated sample.
THP1 cells naturally expressing HAQ isoform human STING (hSTING), stably transfected with an ISRE-inducible Lucia and NF-κB inducible SEAP were treated with various concentrations of Cmd 1 or DMSO control. After 20 h incubation, levels of Lucia and SEAP were measured using QUANTI-luc and QUANTI-Blue to measure and ISRE and NF-κB reporter activity respectively. Percent induction was calculated from fold change in activity compared to DMSO-treated sample. EC50 values were generated by curve fit in Xlfit.
THP1 cells naturally expressing HAQ isoform human STING (hSTING), stably transfected with an ISRE-inducible Lucia and NF-κB inducible SEAP were treated with various concentrations of Cmd 2 or DMSO control. After 20 h incubation, levels of Lucia and SEAP were measured using QUANTI-luc and QUANTI-Blue to measure and ISRE and NF-κB reporter activity, respectively, in Xlfit. Percent induction was calculated from fold change in activity compared to DMSO-treated sample.
THP1 cells naturally expressing HAQ isoform human STING (hSTING), stably transfected with an ISRE-inducible Lucia and NF-κB inducible SEAP were treated with various concentrations of Cmd 2 or DMSO control. After 20 h incubation, levels of Lucia and SEAP were measured using QUANTI-luc and QUANTI-Blue to measure and ISRE and NF-κB reporter activity, respectively, in Xlfit. Percent induction was calculated from fold change in activity compared to DMSO-treated sample. EC50 values were generated by curve fit.
For orientation: A reporter such as luciferase makes a cellular process visible.

In another experiment the target is T2, mouse STING (Mus musculus, UniProt Q3TBT3).
T2 construct: Mouse derived RAW macrophages stably transfected with an ISRE-inducible Lucia; endogenous in cells; host or cells: Mouse derived RAW macrophages stably transfected with an ISRE-inducible Lucia reporter
T2 sequence (Q3TBT3 1-378): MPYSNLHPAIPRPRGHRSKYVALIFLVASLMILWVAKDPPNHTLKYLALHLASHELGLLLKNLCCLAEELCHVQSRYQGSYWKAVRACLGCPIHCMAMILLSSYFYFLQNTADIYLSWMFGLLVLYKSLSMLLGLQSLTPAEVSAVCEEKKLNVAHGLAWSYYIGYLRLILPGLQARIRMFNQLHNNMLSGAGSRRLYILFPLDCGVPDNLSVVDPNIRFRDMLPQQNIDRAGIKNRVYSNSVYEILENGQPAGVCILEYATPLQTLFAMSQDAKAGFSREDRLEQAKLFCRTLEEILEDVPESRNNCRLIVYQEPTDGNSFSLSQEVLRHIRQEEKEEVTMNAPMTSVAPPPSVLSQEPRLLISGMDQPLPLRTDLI
Nature of the experiment: RAW macrophage ISRE-inducible Lucia reporter assay. It counts as cell-based. The following applies: mouse derived RAW macrophages, 20 h incubation, QUANTI-luc, vs DMSO-treated sample. How it is done:
Mouse derived RAW macrophages stably transfected with an ISRE-inducible Lucia were treated with various concentrations of compound 1 or DMSO control. After 20 h incubation, levels of Lucia were measured using QUANTI-luc to measure and ISRE reporter activity. Percent induction was calculated from fold change in activity compared to DMSO-treated sample.
Mouse derived RAW macrophages stably transfected with an ISRE-inducible Lucia were treated with various concentrations of compound 1 or DMSO control. After 20 h incubation, levels of Lucia were measured using QUANTI-luc to measure and ISRE reporter activity. Percent induction was calculated from fold change in activity compared to DMSO-treated sample. EC50 values were generated by curve fit in Xlfit.
Mouse derived RAW macrophages stably transfected with an ISRE-inducible Lucia were treated with various concentrations of compound 2 or DMSO control. After 20 h incubation, levels of Lucia were measured using QUANTI-luc to measure and ISRE reporter activity. Percent induction was calculated from fold change in activity compared to DMSO-treated sample.
Mouse derived RAW macrophages stably transfected with an ISRE-inducible Lucia were treated with various concentrations of compound 2 or DMSO control. After 20 h incubation, levels of Lucia were measured using QUANTI-luc to measure and ISRE reporter activity. […]

The next experiment deals with STING CTD (Homo sapiens, UniProt Q86WV6). Description: Thermal shift assay with STING CTD. It counts as binding. The following applies: 0.1 mg/mL STING CTD, compound 2 mM to 0.05 uM, SYPRO Orange, 25-80° C. How it is done:
Thermal shift assay was conducted with 0.1 mg/mL of STING CTD with various dilutions of compound 1 from 2 mM to 0.05 uM in 10 mM HEPES (pH 7.5), 140 mM NaCl and a 5 fold dilution of SYPRO Orange dye (Invitrogen). The fluorescence signal as a function of temperature was recorded using a Real Time PCR machine (Thermo Fisher). The temperature gradient was performed in the range of 25−80° C. with a ramp of 0.2° C. over the course of 60 min. Data were analyzed with the Thermal Shift Software (Thermo Fisher), DSF analysis, and the Derivative model was used to fit the fluorescence data to obtain the midpoint temperature for the thermal protein unfolding transition (Tm) using the curve-fitting software Prism.

T1 sequence (Q86WV6 whole entry R71H/G230A/H232R/R293Q, canonical isoform): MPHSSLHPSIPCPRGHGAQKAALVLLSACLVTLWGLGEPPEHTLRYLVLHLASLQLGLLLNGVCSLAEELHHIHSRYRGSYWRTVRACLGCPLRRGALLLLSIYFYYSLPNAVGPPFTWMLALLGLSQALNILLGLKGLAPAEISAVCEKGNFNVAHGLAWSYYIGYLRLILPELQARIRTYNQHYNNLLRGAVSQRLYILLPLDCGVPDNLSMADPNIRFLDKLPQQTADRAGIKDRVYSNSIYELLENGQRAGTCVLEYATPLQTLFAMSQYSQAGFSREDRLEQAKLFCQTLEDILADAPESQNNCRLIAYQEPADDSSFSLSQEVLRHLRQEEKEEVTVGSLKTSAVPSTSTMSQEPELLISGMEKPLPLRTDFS
Chain of STING CTD (Q86WV6 135-379 limits assumed): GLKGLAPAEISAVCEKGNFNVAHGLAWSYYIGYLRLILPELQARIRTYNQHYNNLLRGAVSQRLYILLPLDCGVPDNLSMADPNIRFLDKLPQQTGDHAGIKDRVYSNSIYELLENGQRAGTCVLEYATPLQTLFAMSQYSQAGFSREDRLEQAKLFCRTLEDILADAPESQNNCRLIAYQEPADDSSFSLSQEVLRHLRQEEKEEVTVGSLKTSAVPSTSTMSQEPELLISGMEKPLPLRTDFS

Take `Nc1ncnc2c1ncn2[C@@H]1O[C@@H]2COP(=O)(S)O[C@@H]3[C@H](F)[C@@H](COP(=O)(O)O[C@@H]1[C@@H]2F)O[C@H]3n1ccc(=O)[nH]c1=O` (stereo partly drawn) [compound 1]: the “ISRE (IRF) reporter activity, induction” value is “activates natural allelic variant HAQ to induce IRF” in experiment [1] and “activates mouse STING to induce IRF in RAW macrophages” at mouse STING. Further, the “Binding to STING (thermal shift, Tm)” value on STING CTD was “binds to STING with high affinity”.
For the molecule `CCCCCCCCCCOc1ccc(C(=O)Oc2ccc(CSP3(=O)OC[C@H]4O[C@@H](n5cnc6c(N)ncnc65)[C@H](OP(=O)(O)OC[C@H]5O[C@@H](n6ccc(=O)[nH]c6=O)[C@H](O3)[C@@H]5F)[C@@H]4F)cc2)cc1` (stereo partly drawn) [compound 2], the “NF-κB reporter activity, induction” value in experiment [1] (QUANTI-Blue (SEAP)) was “activates natural allelic variant HAQ to induce IRF and NF-κB”. In addition, the entries for the “ISRE (IRF) reporter activity, induction” value (in experiment [1]; on mouse STING) were “activates natural allelic variant HAQ to induce IRF” and “activates mouse STING to induce IRF in RAW macrophages”, respectively.
